Assay results from patent US20250215029A1 (Recludix Pharma, Inc., priority 2022, published 2025).
Where two headings read alike, the source gives them in different places.

How the values were obtained:
[1] = target: T1, Recombinant STAT3 protein (STAT3 (G127-I722)) (Homo sapiens, UniProt P40763); assay: STAT3 Fluorescence Polarization (FP) Assay; assay type: binding; conditions: probe 5-FAM-GpYLPQTV-NH2 2 nM, 45-minute incubation
T1 construct: Recombinant STAT3 protein (STAT3 (G127-I722))
How it was run: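 Compounds in serial dilution receive a premix of STAT3 (G127-I722, 25 nM) and fluorescent phosphotyrosine peptide 5-FAM-GpYLPQTV-NH2 (2 nM) at pH 7.4. After 45 min at room temperature, FP is measured and IC50 derived by nonlinear regression.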

[2] = target: T2, Recombinant STAT6 protein (STAT6 (W123-T658)) (Homo sapiens, UniProt P42226); assay: STAT6 Fluorescence Polarization (FP) Assay; assay type: binding; conditions: 45-minute incubation
T2 construct: Recombinant STAT6 protein (STAT6 (W123-T658))
T2 sequence (P42226 123-658): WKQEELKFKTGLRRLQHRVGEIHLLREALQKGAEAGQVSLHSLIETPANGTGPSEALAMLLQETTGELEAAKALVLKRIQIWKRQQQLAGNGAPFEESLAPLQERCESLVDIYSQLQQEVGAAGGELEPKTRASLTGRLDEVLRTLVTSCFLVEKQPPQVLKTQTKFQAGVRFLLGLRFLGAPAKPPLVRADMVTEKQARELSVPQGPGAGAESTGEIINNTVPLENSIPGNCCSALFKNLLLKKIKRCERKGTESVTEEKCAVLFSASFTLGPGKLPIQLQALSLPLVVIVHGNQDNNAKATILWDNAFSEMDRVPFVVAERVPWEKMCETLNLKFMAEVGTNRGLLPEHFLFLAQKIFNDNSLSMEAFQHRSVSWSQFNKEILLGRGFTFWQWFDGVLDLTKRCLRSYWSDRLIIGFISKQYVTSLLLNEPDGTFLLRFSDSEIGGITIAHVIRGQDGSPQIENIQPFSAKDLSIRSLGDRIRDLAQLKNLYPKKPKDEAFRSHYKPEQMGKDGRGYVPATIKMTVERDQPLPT
How it was run: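 Recombinant STAT6 (W123-T658) at 250 nM mixed with 2 nM 5-FAM phosphotyrosine peptide probe in HEPES pH 7.4 buffer with DTT, 1% DMSO final, added to serially diluted compounds. FP (mP) read after 45 min at room temperature; IC50 by nonlinear regression vs log concentration.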

[3] = STAT3 25 nM, read-out: STAT3 (FP assay IC50)
[4] = STAT6 250 nM, probe 5-FAM-Ap[…]-NH2 2 nM, read-out: STAT6 (FP assay IC50)
[5] = STAT3 (G127-I722) 25 nM, read-out: STAT3 (FP assay IC50 class)
[6] = STAT6 (W123-T658) 250 nM, probe 5-FAM-Ap[…]-NH2 2 nM, read-out: STAT6 (FP assay IC50 class)

T1 sequence (P40763 127-722): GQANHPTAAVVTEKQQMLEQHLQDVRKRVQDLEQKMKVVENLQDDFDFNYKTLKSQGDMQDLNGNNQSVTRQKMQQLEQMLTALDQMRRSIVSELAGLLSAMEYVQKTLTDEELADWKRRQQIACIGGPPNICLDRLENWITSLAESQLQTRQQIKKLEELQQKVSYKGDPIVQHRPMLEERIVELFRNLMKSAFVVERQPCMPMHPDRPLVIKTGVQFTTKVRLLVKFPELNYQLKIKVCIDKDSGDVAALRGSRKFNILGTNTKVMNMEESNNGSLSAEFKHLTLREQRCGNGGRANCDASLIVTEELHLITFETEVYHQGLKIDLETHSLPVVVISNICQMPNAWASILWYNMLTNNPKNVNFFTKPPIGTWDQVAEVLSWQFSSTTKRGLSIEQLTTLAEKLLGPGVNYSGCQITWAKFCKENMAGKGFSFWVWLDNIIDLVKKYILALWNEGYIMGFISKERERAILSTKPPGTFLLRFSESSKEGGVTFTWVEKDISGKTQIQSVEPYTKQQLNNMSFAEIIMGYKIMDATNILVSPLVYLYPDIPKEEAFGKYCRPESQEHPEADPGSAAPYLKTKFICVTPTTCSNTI

Compound: O=C(N[C@H]1CCCC[C@H]2CC[C@@H](C(=O)N3CC4(CN(C(=O)Cc5ccccc5)C4)C3)N2C1=O)c1cc2cc(C(F)(F)P(=O)(O)O)ccc2s1 [Compound 42, (difluoro(2-(((3S,6S,10aS)-5-oxo-3-(6-(2-phenylacetyl)-2,6-diazaspiro[3.3]heptane-2-carbonyl)decahydropyrrolo [1,2-a]azocin-6-yl)carbamoyl)benzo[b]thiophen-5-yl)methyl) phosphonic acid]
- IC50 [1, 3]: 0.1 to 1 µM
- IC50 [2, 4]: ≤ 0.3 µM

Compound: O=C(/C=C/c1ccc(C(F)(F)P(=O)(O)O)cc1)N[C@H]1CCCC[C@H]2CC[C@@H](C(=O)N3Cc4cnn(-c5ccccc5)c4C3)N2C1=O [Compound 829, (difluoro(4-((E)-3-oxo-3-(((3S,6S,10aS)-5-oxo-3-(1-phenyl-1,4,5,6-tetrahydropyrrolo[3,4-c]pyrazole-5-carbonyl)decahydropyrrolo[1,2-a]azocin-6-yl)amino)prop-1-en-1-yl)phenyl)methyl) phosphonic acid]
- IC50 [1, 5]: 1 to 10 µM
- IC50 [2, 6]: 0.3 to 3 µM

Compound: O=C(N[C@H]1CCCC[C@H]2CC[C@@H](C(=O)N3CC(c4cccnc4)C3)N2C1=O)c1cc2cc(CP(=O)(O)O)ccc2s1 [Compound 663, ((2-(((3S,6S,10aS)-5-oxo-3-(3-(pyridin-3-yl)azetidine-1-carbonyl)decahydropyrrolo[1,2-a]azocin-6-yl)carbamoyl)benzo [b]thiophen-5-yl)methyl) phosphonic acid]
- IC50 [1, 5]: 0.1 to 1 µM
- IC50 [2, 6]: 3 to 30 µM

Compound: Cc1ccncc1C1CN(C(=O)[C@@H]2CC[C@@H]3C[C@@H](C)CC[C@H](NC(=O)c4cc5cc(CP(=O)(O)O)ccc5s4)C(=O)N32)C1 [Compound 655, ((2-(((3S,6S,9S,10aR)-9-methyl-3-(3-(4-methylpyridin-3-yl)azetidine-1-carbonyl)-5-oxodecahydropyrrolo [1,2-a]azocin-6-yl)carbamoyl)benzo [b]thiophen-5-yl)methyl) phosphonic acid]
- IC50 [1, 5]: 0.1 to 1 µM
- IC50 [2, 6]: 3 to 30 µM

Compound: O=C(N[C@H]1CCC[C@H]2CC[C@@H](C(=O)N3CC(c4ccncc4)C3)N2C1=O)c1cc2cc(C(F)P(=O)(O)O)ccc2s1 (stereo partly drawn) [Compound 611, (fluoro(2-(((3S,6S,9aS)-5-oxo-3-(3-(pyridin-4-yl)azetidine-1-carbonyl)octahydro-1H-pyrrolo[1,2-a]azepin-6-yl)carbamoyl)benzo [b]thiophen-5-yl)methyl) phosphonic acid]
- IC50 [1, 5]: 0.1 to 1 µM
- IC50 [2, 6]: 3 to 30 µM

Compound: C[C@@H]1[C@@H](c2cccnc2)CN1C(=O)[C@@H]1CC[C@@H]2CCC[C@H](NC(=O)c3cc4cc(C(F)P(=O)(O)O)ccc4s3)C(=O)N21 (stereo partly drawn) [Compound 737, (fluoro(2-(((3S,6S,9aS)-3-((2R,3S)-2-methyl-3-(pyridin-3-yl)azetidine-1-carbonyl)-5-oxooctahydro-1H-pyrrolo[1,2-a]azepin-6-yl)carbamoyl)benzo [b]thiophen-5-yl)methyl) phosphonic acid Or (fluoro(2-(((3S,6S,9aS)-3-((2S,3R)-2-methyl-3-(pyridin-3-yl)azetidine-1-carbonyl)-5-oxooctahydro-1H-pyrrolo[1,2-a]azepin-6-yl)carbamoyl)benzo [b]thiophen-5-yl)methyl) phosphonic acid]
- IC50 [1, 5]: < 0.1 µM
- IC50 ([2]; STAT6 (W123-T658) 250 nM, probe 5-FAM-ApYKPFQDLI-NH2 2 nM, read-out: STAT6 (FP assay IC50 class)): 3 to 30 µM

Compound: O=C(N[C@H]1CCC[C@H]2CC[C@@H](C(=O)N3CC(c4cncc(F)c4)C3)N2C1=O)c1cc2cc(C(F)P(=O)(O)O)ccc2s1 (stereo partly drawn) [Compound 596, (fluoro(2-(((3S,6S,9aS)-3-(3-(5-fluoropyridin-3-yl)azetidine-1-carbonyl)-5-oxooctahydro-1H-pyrrolo[1,2-a]azepin-6-yl)carbamoyl)benzo [b]thiophen-5-yl)methyl) phosphonic acid]
- IC50 [1, 5]: 0.1 to 1 µM
- IC50 [2, 6]: 3 to 30 µM

Compound: O=C(N[C@H]1CCCC[C@H]2CC[C@@H](C(=O)N3CC(Cc4ccccc4)C3)N2C1=O)c1cc2cc(C(F)(F)P(=O)(O)O)ccc2s1 [Compound 36, ((2-(((3S,6S,10aS)-3-(3-benzylazetidine-1-carbonyl)-5-oxodecahydro-pyrrolo[1,2-a]azocin-6-yl)carbamoyl)benzo[b]thiophen-5-yl)difluoromethyl) phosphonic acid]
- IC50 [1, 3]: < 0.1 µM
- IC50 [2, 4]: 0.3 to 3 µM

Compound: N#C[C@H]1[C@H](c2ccccc2)CN(C(=O)[C@@H]2CC[C@@H]3CCC[C@H](NC(=O)c4cc5cc([C@H](F)P(=O)(O)O)ccc5s4)C(=O)N32)C12CC2 (single isomer, unassigned) [Compound 916]
- IC50 [1, 5]: 1 to 10 µM
- IC50 [2, 6]: ≤ 0.3 µM

Compound: CC[C@H]1CC[C@H](NC(=O)c2cc3cc(C(F)P(=O)(O)O)ccc3s2)C(=O)N2[C@H](CC[C@H]2C(=O)N2C[C@@H](C#N)[C@H](c3ccccc3)C2)C1 (single isomer, unassigned) [Compound 237]
- IC50 [1, 5]: 1 to 10 µM
- IC50 [2, 6]: ≤ 0.3 µM

Compound: CCC[C@H]1CC[C@H](NC(=O)c2cc3cc(C(F)P(=O)(O)O)ccc3s2)C(=O)N2[C@H](CC[C@H]2C(=O)N2CC(c3cnccc3OC)C2)C1 (stereo partly drawn) [Compound 247, (fluoro(2-(((3S,6S,9S,10aR)-3-(3-(4-methoxypyridin-3-yl)azetidine-1-carbonyl)-5-oxo-9-propyldecahydropyrrolo[1,2-a]azocin-6-yl)carbamoyl)benzo[b]thiophen-5-yl)methyl)phosphonic acid]
- IC50 [1, 5]: < 0.1 µM
- IC50 [2, 6]: 3 to 30 µM

Compound: CCOc1ccncc1C1CN(C(=O)[C@@H]2CC[C@@H]3CCC[C@H](NC(=O)c4cc5cc([C@@H](F)P(=O)(O)O)ccc5s4)C(=O)N32)C1 (single isomer, unassigned) [Compound 771]
- IC50 [1, 5]: < 0.1 µM
- IC50 [2, 6]: 3 to 30 µM

Compound: CC(C)c1ccncc1C1CN(C(=O)[C@@H]2CC[C@@H]3CCC[C@H](NC(=O)c4cc5cc(C(F)P(=O)(O)O)ccc5s4)C(=O)N32)C1 (stereo partly drawn) [Compound 939, (fluoro(2-(((3S,6S,9aS)-3-(3-(4-isopropylpyridin-3-yl)azetidine-1-carbonyl)-5-oxooctahydro-1H-pyrrolo[1,2-a]azepin-6-yl)carbamoyl)benzo [b]thiophen-5-yl)methyl) phosphonic acid]
- IC50 [1, 5]: < 0.1 µM
- IC50 [2, 6]: 3 to 30 µM

Compound: Cc1ncncc1C1CN(C(=O)[C@@H]2CC[C@@H]3CCC[C@H](NC(=O)c4cc5cc(CP(=O)(O)O)ccc5s4)C(=O)N32)C1 [Compound 661, ((2-(((3S,6S,9aS)-3-(3-(4-methylpyrimidin-5-yl)azetidine-1-carbonyl)-5-oxooctahydro-1H-pyrrolo[1,2-a]azepin-6-yl)carbamoyl)benzo [b]thiophen-5-yl)methyl) phosphonic acid]
- IC50 [1, 5]: 1 to 10 µM
- IC50 [2, 6]: 3 to 30 µM

Compound: N#Cc1cncc(C2CN(C(=O)[C@@H]3CC[C@@H]4CCC[C@H](NC(=O)c5cc6cc(CP(=O)(O)O)ccc6s5)C(=O)N43)C2)c1 [Compound 659, ((2-(((3S,6S,9aS)-3-(3-(5-cyanopyridin-3-yl)azetidine-1-carbonyl)-5-oxooctahydro-1H-pyrrolo[1,2-a]azepin-6-yl)carbamoyl)benzo [b]thiophen-5-yl)methyl) phosphonic acid]
- IC50 [1, 5]: 1 to 10 µM
- IC50 [2, 6]: 3 to 30 µM

Compound: O=C(N[C@H]1CCC[C@H]2CC[C@@H](C(=O)N3CC(c4cccnc4)CC34CC4)N2C1=O)c1cc2cc(C(F)P(=O)(O)O)ccc2s1 (stereo partly drawn) [Compound 907, (fluoro(2-(((3S,6S,9aS)-5-oxo-3-(6-(pyridin-3-yl)-4-azaspiro[2.4]heptane-4-carbonyl)octahydro-1H-pyrrolo[1,2-a]azepin-6-yl)carbamoyl)benzo [b]thiophen-5-yl)methyl) phosphonic acid]
- IC50 [1, 5]: 1 to 10 µM
- IC50 [2, 6]: ≤ 0.3 µM

Compound: O=C(N[C@H]1CCC[C@H]2CC[C@@H](C(=O)N3CC(c4cnccc4N4CCOCC4)C3)N2C1=O)c1cc2cc([C@H](F)P(=O)(O)O)ccc2s1 (single isomer, unassigned) [Compound 746]
- IC50 [1, 5]: < 0.1 µM
- IC50 [2, 6]: 3 to 30 µM

Compound: Cn1ccc([C@@H]2CN(C(=O)[C@@H]3CC[C@@H]4CCC[C@H](NC(=O)c5cc6cc([C@@H](F)P(=O)(O)O)ccc6s5)C(=O)N43)C3(CC3)C2)cc1=O [Compound 831, ((S)-fluoro(2-(((3S,6S,9aS)-3-((R)-6-(1-methyl-2-oxo-1,2-dihydropyridin-4-yl)-4-azaspiro[2.4]heptane-4-carbonyl)-5-oxooctahydro-1H-pyrrolo[1,2-a]azepin-6-yl)carbamoyl)benzo [b]thiophen-5-yl)methyl) phosphonic acid]
- IC50 [1, 5]: 1 to 10 µM
- IC50 [2, 6]: 0.3 to 3 µM
